Measurements as given in patent US12129237B2, “Substituted diaminocarboxamide and diaminocarbonitrile pyrimidines, compositions thereof, and methods of treatment therewith” (SIGNAL PHARMACEUTICALS, LLC, priority 2011, dated 2024).

Target: T1, JNK1 (Homo sapiens, UniProt P45983)
T1 construct: purchased Carna Biosciences
Experiment: JNK1 biochemical assays (one or more of: time resolved fluorescence, Z'-LYTE Cascade, radioactive)
Conditions: one or more of the JNK1 biochemical assays; read-out: Act. Level (JNK1 IC50 activity level)

T1 sequence (P45983 whole entry): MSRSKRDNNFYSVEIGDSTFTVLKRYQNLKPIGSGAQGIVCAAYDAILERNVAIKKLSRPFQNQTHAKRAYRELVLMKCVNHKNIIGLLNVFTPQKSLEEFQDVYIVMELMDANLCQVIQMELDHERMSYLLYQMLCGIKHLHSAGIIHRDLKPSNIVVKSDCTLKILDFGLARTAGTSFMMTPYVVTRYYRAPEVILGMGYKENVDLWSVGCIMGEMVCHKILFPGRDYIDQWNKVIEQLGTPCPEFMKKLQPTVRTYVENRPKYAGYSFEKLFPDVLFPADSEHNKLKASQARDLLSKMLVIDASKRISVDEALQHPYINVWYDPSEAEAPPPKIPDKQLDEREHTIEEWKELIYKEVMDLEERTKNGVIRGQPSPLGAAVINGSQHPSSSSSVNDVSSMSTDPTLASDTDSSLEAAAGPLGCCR

| SMILES | IC50 [nM] |
| --- | --- |
| C[C@@H]1CC[C@@H](Nc2nc(N[C@H](C)C3CC3)ncc2C(N)=O)C[C@H]1O [Example 394, 2-((R)-1-cyclopropylethylamino)-4-((1R,3R,4R)-3-hydroxy-4-methylcyclohexylamino)pyrimidine-5-carboxamide] | < 200 |
| C[C@H](Nc1ncc(C(N)=O)c(N[C@@H]2CC[C@@H](C)[C@H](O)C2)n1)C1CC1 [Example 395, 2-((S)-1-cyclopropylethylamino)-4-((1R,3R,4R)-3-hydroxy-4-methylcyclohexylamino)pyrimidine-5-carboxamide] | < 200 |
| C[C@@H]1CC[C@@H](Nc2nc(NC34CC(C)(C3)C4)ncc2C(N)=O)C[C@H]1O [Example 396, 4-((1R,3R,4R)-3-hydroxy-4-methylcyclohexylamino)-2-(3-methylbicyclo[1.1.1]pentan-1-ylamino)pyrimidine-5-carboxamide] | < 200 |
| C[C@@H]1CC[C@@H](Nc2nc(NC(C)(C)C3CC3)ncc2C(N)=O)C[C@H]1O [Example 397, 2-(2-cyclopropylpropan-2-ylamino)-4-((1R,3R,4R)-3-hydroxy-4-methylcyclohexylamino)pyrimidine-5-carboxamide] | < 200 |
| CC[C@H](C)Nc1ncc(C(N)=O)c(N[C@@H]2CC[C@@H](C)[C@H](O)C2)n1 [Example 398, 2-(sec-butylamino)-4-((1R,3R,4R)-3-hydroxy-4-methylcyclohexylamino)pyrimidine-5-carboxamide] | < 200 |
| CC(C)(C)Nc1nc(NC23CCC(O)(CC2)C3)ncc1C(N)=O [Example 399, 4-(tert-butylamino)-2-(4-hydroxybicyclo[2.2.1]heptan-1-ylamino)pyrimidine-5-carboxamide] | < 200 |
| CC1(Nc2nc(N[C@H]3CC[C@H](OC4CC4)CC3)ncc2C(N)=O)CCC1 [Example 400, 2-((1r,4r)-4-cyclopropoxycyclohexylamino)-4-(1-methylcyclobutylamino)pyrimidine-5-carboxamide] | < 200 |
| CCO[C@H]1CC[C@H](Nc2ncc(C(N)=O)c(NC3(C)CCC3)n2)CC1 [Example 401, 2-((1r,4r)-4-ethoxycyclohexylamino)-4-(1-methylcyclobutylamino)pyrimidine-5-carboxamide] | < 200 |
| CO[C@H]1CC[C@H](Nc2ncc(C(N)=O)c(NC3(C)CCC3)n2)CC1 [Example 402] | < 200 |
| CC1(Nc2nc(N[C@H]3CCCOC3)ncc2C(N)=O)CCC1 [Example 403, (S)-4-(1-methylcyclobutylamino)-2-(tetrahydro-2H-pyran-3-ylamino)pyrimidine-5-carboxamide] | < 200 |
| CC1(Nc2nc(N[C@@H]3CCC[C@H](O)C3)ncc2C(N)=O)CCC1 [Example 404, 2-((1R,3S)-3-hydroxycyclohexylamino)-4-(1-methylcyclobutylamino)pyrimidine-5-carboxamide] | < 200 |
| NC(=O)c1cnc(N[C@H]2CCCOC2)nc1NC12CC(C1)C2 [Example 405, (S)-4-(bicyclo[1.1.1]pentan-1-ylamino)-2-(tetrahydro-2H-pyran-3-ylamino)pyrimidine-5-carboxamide] | < 200 |
| NC(=O)c1cnc(NC2CCOCC2)nc1NC12CC(C1)C2 [Example 407, 4-(bicyclo[1.1.1]pentan-1-ylamino)-2-(tetrahydro-2H-pyran-4-ylamino)pyrimidine-5-carboxamide] | < 200 |
| C[C@@H](Nc1nc(NC23CCC(O)(CC2)CC3)ncc1C(N)=O)C1CC1 [Example 408, (R)-4-(1-cyclopropylethylamino)-2-(4-hydroxybicyclo[2.2.2]octan-1-ylamino)pyrimidine-5-carboxamide] | < 200 |
| C[C@@H](Nc1nc(N[C@H]2CC[C@H](OCC(F)(F)F)CC2)ncc1C(N)=O)C1CC1 [Example 409, 4-((R)-1-cyclopropylethylamino)-2-((1r,4R)-4-(2,2,2-trifluoroethoxy)cyclohexylamino)pyrimidine-5-carboxamide] | < 200 |
